From patent publication US12668591B2, “1,2,4-oxadiazole derivatives as histone deacetylase 6 inhibitors” (Oryzon Genomics, S.A., priority 2017, dated 2026) come the findings set out here.

Test [1] concerns the target T1, HDAC6 (Homo sapiens, UniProt Q9UBN7).
T1 sequence (Q9UBN7 1-1215): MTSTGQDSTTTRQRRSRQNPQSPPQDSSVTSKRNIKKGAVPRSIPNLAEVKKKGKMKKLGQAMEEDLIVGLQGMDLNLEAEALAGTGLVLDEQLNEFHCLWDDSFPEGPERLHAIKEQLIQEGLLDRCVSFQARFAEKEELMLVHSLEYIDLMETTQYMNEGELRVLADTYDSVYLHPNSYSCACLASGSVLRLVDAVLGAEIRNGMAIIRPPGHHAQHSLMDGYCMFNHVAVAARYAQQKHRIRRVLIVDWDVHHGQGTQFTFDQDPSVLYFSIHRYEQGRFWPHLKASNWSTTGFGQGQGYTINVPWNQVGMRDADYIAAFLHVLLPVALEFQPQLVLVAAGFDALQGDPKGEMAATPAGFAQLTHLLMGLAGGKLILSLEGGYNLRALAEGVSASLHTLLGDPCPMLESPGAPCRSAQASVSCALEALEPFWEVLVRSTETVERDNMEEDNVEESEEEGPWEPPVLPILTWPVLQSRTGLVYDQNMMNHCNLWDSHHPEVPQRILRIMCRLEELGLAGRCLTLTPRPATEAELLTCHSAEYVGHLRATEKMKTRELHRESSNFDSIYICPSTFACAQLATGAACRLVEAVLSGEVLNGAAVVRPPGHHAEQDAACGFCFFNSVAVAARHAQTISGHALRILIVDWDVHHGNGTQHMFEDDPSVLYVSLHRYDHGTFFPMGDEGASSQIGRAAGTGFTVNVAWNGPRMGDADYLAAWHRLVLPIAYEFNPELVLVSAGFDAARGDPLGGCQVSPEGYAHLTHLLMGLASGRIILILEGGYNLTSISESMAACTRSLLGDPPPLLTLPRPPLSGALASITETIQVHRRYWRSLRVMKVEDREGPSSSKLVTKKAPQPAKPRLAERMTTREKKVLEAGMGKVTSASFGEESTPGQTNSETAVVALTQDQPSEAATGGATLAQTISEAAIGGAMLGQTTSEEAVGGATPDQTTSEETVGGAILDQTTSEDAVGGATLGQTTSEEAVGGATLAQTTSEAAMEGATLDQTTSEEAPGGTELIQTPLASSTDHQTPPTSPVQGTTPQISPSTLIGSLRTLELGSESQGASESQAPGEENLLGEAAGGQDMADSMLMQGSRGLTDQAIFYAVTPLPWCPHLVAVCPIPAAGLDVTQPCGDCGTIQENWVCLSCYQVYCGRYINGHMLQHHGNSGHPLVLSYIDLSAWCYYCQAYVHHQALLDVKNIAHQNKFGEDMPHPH
Nature of the test: In vitro cell-based assay: acetylation levels of Alpha-Tubulin by Western Blot in MOLP8 cells. Set-up: endogenous in cells; host or cells: MOLP8. To be noted: 18 h, acetyl-alpha-tubulin relative band intensity, ACY-1215 1 μM = 100%. The gist of the method:
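MOLP8 cells treated with compounds at 5 and 1 μM for 18 h at 37° C.; acetyl-alpha-tubulin measured by Western blot of RIPA extracts (7 μg protein). Bands normalized to total protein or beta-actin, expressed relative to ACY-1215 1 μM (100%), then classed.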
For orientation: Immunoblotting shows a protein as a band on a membrane.

In another test the target is T2, HDAC2 (Homo sapiens, UniProt Q92769).
T2 construct: (full length with C-terminal His-tag); His (C); purchased BPS Bioscience Inc. 50002
Nature of the test: HDAC2 enzyme inhibition assay (fluorimetric). It is filed as biochemical. To be noted: 1 μM compound; 3 h pre-incubation; recombinant full length HDAC2; read-out: HDAC2 % inh @ 1 μM. The protocol: HDAC6 and HDAC2 Enzyme Inhibition Assay
A fluorimetric assay was used for testing the activity of compounds of the invention against HDAC6 and HDAC2.
The compounds were dissolved in DMSO. Serial dilutions were prepared in DMSO and then diluted 1:10 in HDAC assay buffer (Tris-buffered solution, BPS Bioscience Inc. #50031). 5 μl of the compound dilution was added to a 50 μl reaction so that the final concentration of DMSO was 1%.
The compounds were pre-incubated in duplicate at RT for 3 hours in a mixture containing HDAC assay buffer, 5 μg BSA and recombinant HDAC enzyme (see table above). The enzymatic reactions were initiated by the addition of a fluorogenic, acetylated peptide substrate based on a histone protein (BPS Bioscience Inc. #50037) to a final concentration of 10 μM. The enzymatic reaction proceeded for 30 minutes at 37° C. Then, 50 μl of 2× HDAC Developer, which contains peptidase activity and Trichostatin A (BPS Bioscience Inc. #50030) was added and the plate was incubated at RT for an additional 15 minutes. Fluorescence intensity was measured at an excitation of 360 nm and an emission of 460 nm using a Tecan Infinite M1000 microplate reader.
Trichostatin A (TSA, Selleckchem #S1045) was used as reference inhibitor.
The fluorescent intensity data were analyzed using the computer software Graphpad Prism (GraphPad Software, San Diego, CA). 100% activity was defined as the fluorescent intensity (Ft) in the absence of the compound. 0% activity was defined as the fluorescent intensity (Fb) in the absence of the enzyme. The percent activity in the presence of each compound was calculated according to the following equation: % activity=(F−Fb)/(Ft−Fb), where F=the fluorescent intensity in the presence of the compound.

Test [2] has as its target T1, HDAC6. Nature of the test: HDAC6 enzyme inhibition assay (fluorimetric). It is filed as biochemical. To be noted: 1 μM compound; 3 h pre-incubation; recombinant full length HDAC6; read-out: HDAC6 % inh @ 1 μM. An outline of the steps: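 Recombinant human HDAC6 or HDAC2 pre-incubated with compound 3 h at RT with BSA, 1% DMSO final; reaction started with fluorogenic acetylated histone peptide (10 μM final), 30 min at 37 °C, then developer with trichostatin A 15 min RT. Fluorescence Ex 360/Em 460 nm; % activity versus no-compound and no-enzyme controls.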

T2 sequence (Q92769 whole entry): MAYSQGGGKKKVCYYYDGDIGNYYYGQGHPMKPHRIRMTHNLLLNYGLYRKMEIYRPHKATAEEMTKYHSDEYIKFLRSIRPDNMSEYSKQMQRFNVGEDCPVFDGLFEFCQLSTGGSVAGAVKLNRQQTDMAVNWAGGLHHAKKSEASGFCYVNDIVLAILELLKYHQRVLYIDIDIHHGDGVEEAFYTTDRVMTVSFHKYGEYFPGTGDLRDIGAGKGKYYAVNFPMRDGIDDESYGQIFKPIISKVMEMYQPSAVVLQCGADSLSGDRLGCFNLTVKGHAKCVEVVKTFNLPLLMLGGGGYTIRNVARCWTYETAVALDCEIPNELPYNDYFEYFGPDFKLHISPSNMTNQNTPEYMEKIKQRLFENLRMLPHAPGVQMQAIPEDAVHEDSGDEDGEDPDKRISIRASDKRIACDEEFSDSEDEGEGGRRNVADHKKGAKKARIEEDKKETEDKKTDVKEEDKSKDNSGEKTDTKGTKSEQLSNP

Consider `COCCn1ccc2cc(-c3cc(-c4noc(C(F)(F)F)n4)ccn3)ncc21` [Example 1x, 3-(2-(1-(2-Methoxyethyl)-1H-pyrrolo[2,3-c]pyridin-5-yl)pyridin-4-yl)-5-(trifluoromethyl)-1,2,4-oxadiazole], for which, at HDAC6 [1], the “Cellular activity @1 uM” value is given as “++ (150-300)” and the “Cellular activity @5 uM” value was “+++ (>300)”. The inhibition at 1 µM on HDAC2 is 16%. Besides, at HDAC6 [2], the inhibition at 1 µM came to 95%.
With `O=C(CN1CCC(F)(F)CC1)Nc1ccnc(-c2cc(-c3noc(C(F)(F)F)n3)ccn2)c1` [Example 1y, 2-(4,4-Difluoropiperidin-1-yl)-N-(4′-(5-(trifluoromethyl)-1,2,4-oxadiazol-3-yl)-[2,2′-bipyridin]-4-yl)acetamide], at HDAC6 [1], the “Cellular activity @1 uM” value is on record as “+ (50-150)”. In addition, the “Cellular activity @5 uM” value on HDAC6 [1] is “++ (150-300)”. Moreover, the inhibition at 1 µM on HDAC2 amounted to 27%; at HDAC6 [2], 92%.
In the same order, the values of `FC1(F)CCN(CCNc2ccnc(-c3cc(-c4noc(C(F)(F)F)n4)ccn3)c2)CC1` [Example 1z, N-(2-(4,4-Difluoropiperidin-1-yl)ethyl)-4′-(5-(trifluoromethyl)-1,2,4-oxadiazol-3-yl)-[2,2′-bipyridin]-4-amine] are “+ (50-150)”, “++ (150-300)”, 46% and 97%.
In the same order, the values of `CCCCn1cc(CN(C)C)c2cc(-c3cc(-c4noc(C(F)(F)F)n4)ccn3)ncc21` [Example 3, 1-(1-Butyl-5-(4-(5-(trifluoromethyl)-1,2,4-oxadiazol-3-yl)pyridin-2-yl)-1-pyrrolo[2,3-c]pyridin-3-yl)-N,N-dimethylmethanamine] are “+ (50-150)”, “+++ (>300)”, 30% and 90%.
In the same order, the values of `FC(F)(F)c1nc(-c2ccnc(-c3n[nH]c4cccnc34)c2)no1` [Example 4, 3-(2-(1H-Pyrazolo[4,3-b]pyridin-3-yl)pyridin-4-yl)-5-(trifluoromethyl)-1,2,4-oxadiazole] are “++ (150-300)”, “+++ (>300)”, 25% and 96%.
For the compound `O=C(Nc1ccnc(-c2cc(-c3noc(C(F)(F)F)n3)ccn2)c1)C1CCCNC1` (stereo not drawn) [Example 5, N-(4′-(5-(trifluoromethyl)-1,2,4-oxadiazol-3-yl)-[2,2′-bipyridin]-4-yl)piperidine-3-carboxamide], on HDAC6 [1], the “Cellular activity @1 uM” value is given as “++ (150-300)” and the “Cellular activity @5 uM” value is listed as “++ (150-300)”. The inhibition at 1 µM on HDAC2 is 29%. The inhibition at 1 µM on HDAC6 [2] worked out at 95%.
